24 compounds from patent publication US9656963B2 (BRISTOL-MYERS SQUIBB COMPANY, priority 2012, dated 2017) can be followed below.

The structures appear in SMILES notation.

The EC50 is the concentration at which the effect is half-maximal.

The target in this assay is T1, hGPR40 (Homo sapiens, UniProt O14842).
T1 construct: 3x FLAG; expressed in transfected cells
T1 sequence (O14842 whole entry): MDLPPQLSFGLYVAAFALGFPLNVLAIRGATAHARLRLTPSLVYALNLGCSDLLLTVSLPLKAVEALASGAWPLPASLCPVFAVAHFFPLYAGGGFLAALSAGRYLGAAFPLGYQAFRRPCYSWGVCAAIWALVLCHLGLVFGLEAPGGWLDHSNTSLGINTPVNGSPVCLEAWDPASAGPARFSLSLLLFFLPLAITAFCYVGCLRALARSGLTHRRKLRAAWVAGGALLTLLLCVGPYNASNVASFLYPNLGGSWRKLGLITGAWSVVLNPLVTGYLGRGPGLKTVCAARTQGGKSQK
Nature of the assay: FDSS-Based Intracellular Calcium Assay. It is filed as cell-based. The conditions noted are these: cells expressing GPR40, intracellular Ca2+ response. In outline:
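Flag-tagged GPR40-expressing cells plated overnight in serum-free, phenol red-free DMEM. Compounds added from DMSO stocks, diluted in assay buffer and added as 3x solution. Intracellular Ca^2+ flux read by fluorescence on an FDSS reader.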
(Calcium flux is commonly read through the fluorescence of an indicator in the cells.)
In the case of `COc1ccc(F)c(-c2ccc(Cc3ccc(N4N=C(C(F)(F)F)C(c5ccccc5)C4CC(=O)O)cc3)c(C)c2)c1` (single isomer, unassigned) [Example 47, Isomer 2, 2-(1-(4-((2′-fluoro-5′-methoxy-3-methylbiphenyl-4-yl)methyl)phenyl)-4-phenyl-3-(trifluoromethyl)-4,5-dihydro-1H-pyrazol-5-yl)acetic acid], the EC50 amounted to 5930 nM.

Consider `COCC1C(C(F)(F)F)=NN(c2ccc(Cc3ccc(-c4cc(OC)ccc4F)cc3C)cc2)C1CC(=O)O` (single isomer, unassigned) [Example 48, Isomer 1, 2-(1-(4-((2′-fluoro-5′-methoxy-3-methylbiphenyl-4-yl)methyl)phenyl)-4-(methoxymethyl)-3-(trifluoromethyl)-4,5-dihydro-1H-pyrazol-5-yl)acetic acid], for which the EC50 came out at 170 nM.

For `COCC1C(C(F)(F)F)=NN(c2ccc(Cc3ccc(-c4cc(OC)ccc4F)cc3C)cc2)C1CC(=O)O` (single isomer, unassigned) [Example 48, Isomer 2, 2-(1-(4-((2′-fluoro-5′-methoxy-3-methylbiphenyl-4-yl)methyl)phenyl)-4-(methoxymethyl)-3-(trifluoromethyl)-4,5-dihydro-1H-pyrazol-5-yl)acetic acid], the EC50 worked out at 920 nM.

Turning to `COc1ccc(OC)c(-c2ccc(Cc3ccc(N4N=C(C#N)CC4CC(=O)O)cc3)c(C)c2)c1` (single isomer, unassigned) [Example 49, Isomer 1, 2-(3-cyano-1-(4-((2′,5′-dimethoxy-3-methylbiphenyl-4-yl)methyl)phenyl)-4,5-dihydro-1H-pyrazol-5-yl)acetic acid], the EC50 amounted to 225 nM.

Consider `COc1ccc(OC)c(-c2ccc(Cc3ccc(N4N=C(C#N)CC4CC(=O)O)cc3)c(C)c2)c1` (single isomer, unassigned) [Example 49, Isomer 2, 2-(3-cyano-1-(4-((2′,5′-dimethoxy-3-methylbiphenyl-4-yl)methyl)phenyl)-4,5-dihydro-1H-pyrazol-5-yl)acetic acid], for which the EC50 was determined as 3110 nM.

In the case of `COc1ccc(F)c(-c2ccc(Cc3ccc(N4N=C(C(F)(F)F)C(C)(C)C4CC(=O)O)cc3)c(C)c2)c1` (single isomer, unassigned) [Example 50, Isomer 1, 2-(1-(4-((2′-fluoro-5′-methoxy-3-methylbiphenyl-4-yl)methyl)phenyl)-4,4-dimethyl-3-(trifluoromethyl)-4,5-dihydro-1H-pyrazol-5-yl)acetic acid], the EC50 amounted to 220 nM.

On to `COc1ccc(F)c(-c2ccc(Cc3ccc(N4N=C(C(F)(F)F)C(C)(C)C4CC(=O)O)cc3)c(C)c2)c1` (single isomer, unassigned) [Example 50, Isomer 2, 2-(1-(4-((2′-fluoro-5′-methoxy-3-methylbiphenyl-4-yl)methyl)phenyl)-4,4-dimethyl-3-(trifluoromethyl)-4,5-dihydro-1H-pyrazol-5-yl)acetic acid], for which the EC50 is 1340 nM.

For the compound `COc1ccc(F)c(-c2ccc(Cc3ccc(N4N=C(C(F)(F)F)CC4(C)CC(=O)O)cc3)c(C)c2)c1` (single isomer, unassigned) [Example 51, Isomer 1, 2-(1-(4-((2′-fluoro-5′-methoxy-3-methylbiphenyl-4-yl)methyl)phenyl)-5-methyl-3-(trifluoromethyl)-4,5-dihydro-1H-pyrazol-5-yl)acetic acid], the EC50 was found to be 1550 nM.

With `COc1ccc(F)c(-c2ccc(Cc3ccc(N4N=C(C(F)(F)F)CC4(C)CC(=O)O)cc3)c(C)c2)c1` (single isomer, unassigned) [Example 51, Isomer 2, 2-(1-(4-((2′-fluoro-5′-methoxy-3-methylbiphenyl-4-yl)methyl)phenyl)-5-methyl-3-(trifluoromethyl)-4,5-dihydro-1H-pyrazol-5-yl)acetic acid], the EC50 was found to be 1490 nM.

As to `COc1ccc(F)c(-c2ccc(Cc3ccc(N4N=C(C#N)C(C)C4CC(=O)O)cc3)c(C)c2)c1` (single isomer, unassigned) [Example 52, Isomer 1, 2-(3-cyano-1-(4-((2′-fluoro-5′-methoxy-3-methylbiphenyl-4-yl)methyl)phenyl)-4-methyl-4,5-dihydro-1H-pyrazol-5-yl)acetic acid], the EC50 came to 1050 nM.

Take `COc1ccc(F)c(-c2ccc(Cc3ccc(N4N=C(C#N)C(C)C4CC(=O)O)cc3)c(C)c2)c1` (single isomer, unassigned) [Example 52, Isomer 2, 2-(3-cyano-1-(4-((2′-fluoro-5′-methoxy-3-methylbiphenyl-4-yl)methyl)phenyl)-4-methyl-4,5-dihydro-1H-pyrazol-5-yl)acetic acid]: the EC50 was determined as 300 nM.

`COc1ccc(F)c(-c2ccc(Cc3ccc(N4N=C(C(F)(F)F)C(CO)C4CC(=O)O)cc3)c(C)c2)c1` (single isomer, unassigned) [Example 53, Isomer 1, 2-(1-(4-((2′-fluoro-5′-methoxy-3-methyl-[1,1′-biphenyl]-4-yl)methyl)phenyl)-4-(hydroxymethyl)-3-(trifluoromethyl)-4,5-dihydro-1H-pyrazol-5-yl)acetic acid, trans-diastereomer]: the EC50 was 170 nM.

On to `COc1ccc(F)c(-c2ccc(Cc3ccc(N4N=C(C(F)(F)F)C(CO)C4CC(=O)O)cc3)c(C)c2)c1` (single isomer, unassigned) [Example 53, Isomer 2, 2-(1-(4-((2′-fluoro-5′-methoxy-3-methyl-[1,1′-biphenyl]-4-yl)methyl)phenyl)-4-(hydroxymethyl)-3-(trifluoromethyl)-4,5-dihydro-1H-pyrazol-5-yl)acetic acid, trans-diastereomer], for which the EC50 turned out to be 1100 nM.

On to `COc1ccc(F)c(-c2ccc(Cc3ccc(N4N=C(C(F)(F)F)C(CC#N)C4CC(=O)O)cc3)c(C)c2)c1` (single isomer, unassigned) [Example 54, Isomer 2, 2-(4-(cyanomethyl)-1-(4-((2′-fluoro-5′-methoxy-3-methyl-[1,1′-biphenyl]-4-yl)methyl)phenyl)-3-(trifluoromethyl)-4,5-dihydro-1H-pyrazol-5-yl)acetic acid, trans-diastereomer], for which the EC50 came out at 1100 nM.

For `COc1ccc(F)c(-c2ccc(Cc3ccc(N4N=C(C(F)(F)F)C(CC#N)C4CC(=O)O)cc3)c(C)c2)c1` (single isomer, unassigned) [Example 54, isomer 1, 2-(4-(cyanomethyl)-1-(4-((2′-fluoro-5′-methoxy-3-methyl-[1,1′-biphenyl]-4-yl)methyl)phenyl)-3-(trifluoromethyl)-4,5-dihydro-1H-pyrazol-5-yl)acetic acid, trans-diastereomer], the EC50 was determined as 380 nM.

For the compound `COc1ccc(F)c(-c2ccc(Cc3ccc(N4N=C(c5ccn(C)n5)C(C)C4CC(=O)O)cc3)c(C)c2)c1` (single isomer, unassigned) [Example 55, Isomer 1, 2-((1-(4-((2′-fluoro-5′-methoxy-3-methyl-[1,1′-biphenyl]-4-yl)methyl)phenyl)-1′,4-dimethyl-4,5-dihydro-1H,1′H-[3,3′-bipyrazol]-5-yl)acetic acid, trans-diastereomer], the EC50 was 5630 nM.

For the compound `COc1ccc(F)c(-c2ccc(Cc3ccc(N4N=C(c5ccn(C)n5)C(C)C4CC(=O)O)cc3)c(C)c2)c1` (single isomer, unassigned) [Example 55, Isomer 2, 2-((1-(4-((2′-fluoro-5′-methoxy-3-methyl-[1,1′-biphenyl]-4-yl)methyl)phenyl)-1′,4-dimethyl-4,5-dihydro-1H,1′H-[3,3′-bipyrazol]-5-yl)acetic acid, trans-diastereomer], the EC50 is 230 nM.

For `COc1ccc(F)c(-c2ccc(Cc3ccc(N4N=C(c5ccccc5)C(C)C4CC(=O)O)cc3)c(C)c2)c1` (single isomer, unassigned) [Example 59, Isomer 1, 2-(1-(4-((2′-fluoro-5′-methoxy-3-methyl-[1,1′-biphenyl]-4-yl)methyl)phenyl)-4-methyl-3-phenyl-4,5-dihydro-1H-pyrazol-5-yl)acetic acid], the EC50 stood at 6470 nM.

Consider `COc1ccc(F)c(-c2ccc(Cc3ccc(N4N=C(c5ccccc5)C(C)C4CC(=O)O)cc3)c(C)c2)c1` (single isomer, unassigned) [Example 59, Isomer 2, 2-(1-(4-((2′-fluoro-5′-methoxy-3-methyl-[1,1′-biphenyl]-4-yl)methyl)phenyl)-4-methyl-3-phenyl-4,5-dihydro-1H-pyrazol-5-yl)acetic acid], for which the EC50 came out at 6 nM.

Turning to `COc1ccc(F)c(-c2ccc(Cc3ccc(N4N=C(C(F)(F)F)C(C)C4CC(=O)O)cc3)c(Cl)c2)c1` (single isomer, unassigned) [Example 60, Isomer 1, 22-(1-(4-((3-chloro-2′-fluoro-5′-methoxy-[1,1′-biphenyl]-4-yl)methyl)phenyl)-4-methyl-3-(trifluoromethyl)-4,5-dihydro-1H-pyrazol-5-yl)acetic acid], the EC50 was 970 nM.

Consider `COc1ccc(F)c(-c2ccc(Cc3ccc(N4N=C(C(F)(F)F)C(C)C4CC(=O)O)cc3)c(Cl)c2)c1` (single isomer, unassigned) [Example 60, Isomer 2, 22-(1-(4-((3-chloro-2′-fluoro-5′-methoxy-[1,1′-biphenyl]-4-yl)methyl)phenyl)-4-methyl-3-(trifluoromethyl)-4,5-dihydro-1H-pyrazol-5-yl)acetic acid], for which the EC50 was found to be 40 nM.

On to `COc1ccc(F)c(-c2ccc(Cc3ccc(N4N=C(c5ncccn5)C(C)C4CC(=O)O)cc3)c(C)c2)c1` (single isomer, unassigned) [Example 61 isomer 1], for which the concentration for a half-maximal effect (EC50) was over 16600 nM.

Regarding `COc1ccc(F)c(-c2ccc(Cc3ccc(N4N=C(c5ncccn5)C(C)C4CC(=O)O)cc3)c(C)c2)c1` (single isomer, unassigned) [Example 61, isomer 2], the EC50 came to 460 nM.

As for `COc1ccc(F)c(-c2ccc(Cc3ccc(N4N=C(c5ccccn5)C(C)C4CC(=O)O)cc3)c(C)c2)c1` (single isomer, unassigned) [Example 62, isomer 1, 2-(1-(4-((2′-fluoro-5′-methoxy-3-methylbiphenyl-4-yl)methyl)phenyl)-4-methyl-3-(pyridin-2-yl)-4,5-dihydro-1H-pyrazol-5-yl)acetic acid], the EC50 came to 1600 nM.
